Reference: patent US4072810A, “Coupled peroxides” (priority 1973, dated 1978)
Read-outs that look alike come from different tables or passages of the source.

Tests used:
[1] = Crosslinking of polyethylene (Table I, xylene solvent extraction); conditions: for % Crosslinking: 30 minutes; for efficiency as crosslinking agent: in words, see Table I
Method: A mixture of the desired polymeric material and 0.01 mole of the difunctional coupled compound is blended together on a standard roll mill, such as used in the rubber industry. […]
The slabs are permitted to cool down and mature at room temperature for 24 hours. The mature slabs were then cut into dumbell shaped samples and tested for tensile strength on an Instron Tensile Tester, following ASTM procedure as described in D412-61T "Tension Testing of Vulcanized Rubber" or the crosslinking in the case of polyethylene is determined by the solvent extraction procedure. In addition to the polymer-peroxide mixture, the crosslinkable mixture, may contain co-agents such as sulfur, promoters, fillers, and reinforcing materials. Desirable fillers are carbon black, titanium dioxide, calcium silicate and alkaline earth metal carbonates.
In Table I the crosslinking ability of the coupled compounds of our invention in polyethylene are compared to a hydroxy-containing peroxide and to difunctional peroxides. Tables II, III, and IV show the versatility of the product of our invention in urethane rubber, ethylene-propylene rubber and silicone rubber.
The polyethylene used for this test was a low density polyethylene
Bakelite DYNH-1, having the following physical properties:
The crosslinking test was carried out at 340° and 375° F.
(1) The percentage crosslinking was determined by extraction of the
crosslinked sample with refluxing xylene. In all cases the polyethylene
charge was 100% extractable before crosslinking.
(2) Based on number of active oxygens per mole.

[2] = Half-life of coupled and uncoupled hydroxy-peroxides in benzene; assay type: physicochemical; conditions: for t1/2: benzene, 0.1 molar, 100000 µM; for half-life relative to the hydroxy containing peroxide precursors: in words, see Example XVI
Excerpt: Half-Life Comparisons of Coupled and Uncoupled Hydroxy-Peroxides (Carried out in Benzene at 0.1 molar concentrations)

[3] = Volatility and thermal stability of peroxides (in words); assay type: physicochemical
Excerpt: Some of the desirable properties that a peroxide has to have to be useful for crosslinking polyethylene are: low volatility, high thermal stability, and good efficiency with respect to its active oxygen content.
The volatility and the thermal stability are necessary requisites, since the peroxide has to tolerate the high temperatures of the milling operation, which is a necessary step to incorporate the peroxide with the polymer before the crosslinking process. If the peroxide is too volatile (as in the case of di-t-butyl peroxide) there would not be any peroxide left for the crosslinking process at the end of the milling step. If the peroxide is not volatile, but its thermal stability is low, a premature decomposition of the peroxide will take place during the milling step, which results in a premature crosslinking of the polymer. If this happens, the polymer cannot be shaped or formed any further since the thermoplastic polymer has become thermoset too soon.

[4] = Initiation of vinyl monomer (styrene) polymerization
Method: This example illustrates the use of coupled peroxides of present disclosures as initiators of vinyl monomer polymerization. Compound [B] (from Example V) at a concentration of 5 × 10^-4 moles per deciliter of styrene, polymerized styrene at 100° C. at a rate of 6.20 × 10^-3 moles per liter per minute. When no initiator is present, the thermal polymerization of styrene at 100° C. proceeds at a rate of 2.82 × 10^-3 moles per liter per minute. Compound [A] (from Examples I, II, and III) at a concentration of 5 × 10^-4 moles per diciliter of styrene polymerized styrene 1.65 faster at 115° C. than the thermal polymerization rate when no polymerization initiator is present.

[5] = S.P.I. exotherm, curing an unsaturated polyester-styrene resin (Table V); conditions: 1% concentration; for Cure Time / Gel Time: 115° C.; for Peak: exotherm at 115° C.
Method: An unsaturated polyester resin was made by reacting maleic anhydride (1.0 mole), phthalic anhydride (1.0 mole), and propylene glycol (2.2 mole) until an acid number of 45-50 was obtained. To this was added hydroquinone at a 0.013% concentration. Seven parts of this unsaturated polyester was diluted with 3 parts of monomeric styrene to obtain a homogeneous blend having a viscosity of 13.08 poise and a specific gravity of 1.14. To 20 g. of this blend was added the 0.2 g. of the desired coupled peroxide and the resulting composition placed in a constant temperature bath at 115° C.
The internal temperature was recorded as function of time. The following results were obtained with some of the coupled compounds (Table V):
S.P.I. EXOTHERM AT 115° C. AND 1% CONCENTRATION
IN POLYESTER RESIN PREPARED IN EXAMPLE VIII

[6] = in words; milling step; cited from earlier work

Structure (SMILES): CC(C)(C)OOC(C)(C)CCC(C)(C)OOC(C)(C)C [2,5-dimethyl-2,5-di(t-butylperoxy)-hexane]
- % Crosslinking ([1]; 340° F., 0.010 molar equivs.): 85.9%
- % Crosslinking ([1]; 340° F., 0.015 molar equivs.): 89.3%
- % Crosslinking ([1]; 375° F., 0.010 molar equivs.): 84.5%
- % Crosslinking ([1]; 375° F., 0.015 molar equivs.): 88.0%
- efficiency as crosslinking agent [1]: not as efficient in utilizing their active oxygen content as the difunctional peroxide of our invention

Structure (SMILES): CC(C)(C)OOC(C)(C)C#CC(C)(C)OOC(C)(C)C [2,5-dimethyl-2,5-di(t-butylperoxy)-hexyne-3]
- % Crosslinking ([1]; 340° F., 0.010 molar equivs.): 81.8%
- % Crosslinking ([1]; 340° F., 0.015 molar equivs.): 86.0%
- % Crosslinking ([1]; 375° F., 0.010 molar equivs.): 84.9%
- % Crosslinking ([1]; 375° F., 0.015 molar equivs.): 87.7%
- efficiency as crosslinking agent [1]: not as efficient in utilizing their active oxygen content as the difunctional peroxide of our invention

Structure (SMILES): CC(O)CC(C)(C)OOC(C)(C)C (stereo not drawn) [2-Methyl-2-(t-butylperoxy)-4-pentanol]
- t1/2 ([2]; 115° C.): 13.6 h
- thermal stability [3]: good
- volatility [3]: low
- % Crosslinking ([1]; 340° F., 0.015 molar equivs.): 78.4%
- % Crosslinking ([1]; 375° F., 0.015 molar equivs.): 75.4%
- efficiency as crosslinking agent [1]: poor

Structure (SMILES): CC(CC(C)(C)OOC(C)(C)C)OC(=O)OC(C)CC(C)(C)OOC(C)(C)C (stereo not drawn) [Di[1,3-dimethyl-3-(t-butylperoxy)butyl] carbonate]
- t1/2 ([2]; 115° C.): 26.8 h
- half-life relative to the hydroxy containing peroxide precursors [2]: almost double
- styrene polymerization, faster than the thermal polymerization rate when no initiator is present ([4]; 115° C., 5 × 10^-4 moles per diciliter of styrene): 1.65
- Cure Time [5]: 11.1 min
- Gel Time [5]: 9.5 min
- Peak [5]: 455 ° F
- % Crosslinking ([1]; 340° F., 0.010 molar equivs.): 89.3%
- % Crosslinking ([1]; 375° F., 0.010 molar equivs.): 89.7%

Structure (SMILES): CC(CC(C)(C)OOC(C)(C)C)OC(=O)CCC(=O)OC(C)CC(C)(C)OOC(C)(C)C (stereo not drawn) [Di[1,3-dimethyl-3-(t-butylperoxy)butyl]succinate]
- % Crosslinking ([1]; 340° F., 0.010 molar equivs.): 88.9%
- % Crosslinking ([1]; 375° F., 0.010 molar equivs.): 89.2%

Structure (SMILES): CC(C)(C)OOC(=O)CCOC(=O)OCCC(=O)OOC(C)(C)C [Di[2-(t-butylperoxycarbonyl)ethyl]carbonate]
- t1/2 ([2]; 100° C.): 30.7 h
- half-life relative to the hydroxy containing peroxide precursors [2]: almost double
- rate of styrene polymerization ([4]; 100° C., 5 × 10^-4 moles per deciliter of styrene): 6.20 × 10^-3 moles per liter per minute
- Cure Time [5]: 8.5 min
- Gel Time [5]: 7.1 min
- Peak [5]: 450 ° F

Structure (SMILES): CC(CC(C)(C)OOC(C)(C)C)OC(=O)OCCOC(=O)OC(C)CC(C)(C)OOC(C)(C)C (stereo not drawn) [Ethylene Bis[1,3-dimethyl-3-(t-butylperoxy)-butyl carbonate]]
- Cure Time [5]: 12.8 min
- Gel Time [5]: 10.8 min
- Peak [5]: 450 ° F
- % Crosslinking ([1]; 340° F., 0.010 molar equivs.): 87.9%
- % Crosslinking ([1]; 375° F., 0.010 molar equivs.): 87.4%

Structure (SMILES): CC(C)(C)OOC(C)(C)C [di-t-butyl peroxide]
- volatility [6]: too volatile

Structure (SMILES): CC(C)(C)OOC(=O)CCO [t-butylperoxy 3-hydroxypropionate, reference compound]
- t1/2 ([2]; 100° C.): 13.0 h
